Target: T1, human TREM2 (Homo sapiens, UniProt Q9NZC2)
T1 construct: expressed in transfected cells; host or cells: HEK293T-hTREM2 cells (HEK cell line expressing human TREM2 and DAP12)
Assay: TREM2 agonist potency by cellular phosphorylation of Syk (AlphaLisa) in HEK293T-hTREM2 cells expressing human TREM2 and DAP12
Format: cell-based
Details: not given
Experimental: In vitro Measurement of Triggering Receptor Expressed on Myeloid Cells 2 activity using cellular phosphorylation of Spleen Tyrosine Kinase (“Syk”) Assays
Measurement of TREM2 agonist potency was done using a HEK cell line expressing human TREM2 and DAP12 (HEK293T-hTREM2 cells). Binding of small molecules to, and activation of, TREM2 increases the phosphorylation of Syk. The resultant levels of Syk phosphorylation are measured using a commercial AlphaLisa reagent kit. To perform the assay, HEK-hTREM2 cells were plated at 14,000 cells per well in a 384 well plate, in 25 μL of complete growth media and incubated at 37° C., 5% CO2 for 20-24 hours.
Prior to the assay, test compounds were diluted in the 384 well plates in assay buffer and allowed to equilibrate for 30 minutes. Growth media was removed from cell plates by inversion on blotting paper, and 25 μL of test articles in assay buffer was added to cells. Cells were incubated for 45 minutes at room temperature. After 45 minutes, assay buffer was removed and 10 μL of lysis buffer was added. Plates were shaken for 20 minutes at 350 RPM at room temperature. After complete lysis, AlphaLisa reagents were added to the lysate, and fluourescence intensity was measured using a Perkin Elmer Envision plate reader. Intensities were used to generate a standard curve, and % activation was calculated. Curve fitting was performed using Prism v9 software, log(agonist) vs response—variable slope (four parameters), and EC50s were calculated from the curve fit.
The results presented in Table B have been generated with the in vitro assay described above. This assay may be used to test any of the compounds described herein to assess and characterize a compound's ability to act as an agonist of TREM2.

T1 sequence (Q9NZC2 19-230): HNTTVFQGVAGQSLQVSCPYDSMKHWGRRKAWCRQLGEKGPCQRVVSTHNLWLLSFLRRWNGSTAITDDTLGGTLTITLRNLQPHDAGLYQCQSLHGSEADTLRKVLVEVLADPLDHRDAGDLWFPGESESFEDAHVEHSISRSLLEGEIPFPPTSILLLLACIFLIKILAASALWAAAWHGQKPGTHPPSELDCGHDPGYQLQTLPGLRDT
T1 sequence (O43914 22-113 partner): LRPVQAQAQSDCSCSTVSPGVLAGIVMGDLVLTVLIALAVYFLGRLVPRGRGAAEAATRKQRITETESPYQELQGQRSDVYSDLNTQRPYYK

EC50	Structure (SMILES)
100 to 500 nM	Cc1cc2c(-n3cccc3)nc(N3C[C@@H](C)O[C@@H](c4cnn(C5CC5)c4)C3)nc2nc1C [Example 67, (2S,6R)-2-(1-cyclopropyl-pyrazol-4-yl)-4-(6,7-dimethyl-4-pyrrol-1-yl-pyrido[2,3-d]pyrimidin-2-yl)-6-methyl-morpholine]
< 100 nM	Cc1cc2c(-c3ccccc3)nc(N3C[C@@H](C)O[C@@H](c4cnn(C5CC5)c4)C3)nc2nc1C [Example 68, (2S,6R)-2-(1-cyclopropylpyrazol-4-yl)-4-(6,7-dimethyl-4-phenylpyrido[2,3-d]pyrimidin-2-yl)-6-methyl-morpholine]

Same assay, conditions: HEK293 cells expressing hTREM2 and DAP12; 45 minutes at room temperature; Syk phosphorylation, AlphaLisa; read-out: hTREM2 EC50

EC50	Structure (SMILES)
< 100 nM	Cc1noc(-c2cc3c(C4CCCCC4)nc(N4C[C@@H](C)O[C@@H](c5cnn(C6CC6)c5)C4)nc3nc2C)n1 [Example 33, (2S,6R)-4-[4-cyclohexyl-7-methyl-6-(3-methyl-1,2,4-oxadiazol-5-yl)-pyrido[2,3-d]pyrimidin-2-yl]-2-(1-cyclopropylpyrazol-4-yl)-6-methyl-morpholine]
< 100 nM	Cc1nc2nc(N3C[C@@H](C)O[C@@H](c4cnn(C5CC5)c4)C3)nc(C3CCCCC3)c2cc1C#N [Example 35, 4-cyclohexyl-2-[(2S,6R)-2-(1-cyclopropylpyrazol-4-yl)-6-methyl-morpholin-4-yl]-7-methyl-pyrido[2,3-d]pyrimidine-6-carbonitrile]
100 to 500 nM	Cc1nc2nc(N3C[C@@H](C)O[C@@H](c4cnn(C5CC5)c4)C3)nc(C3CCC3)c2cc1C#N [Example 42, 4-cyclobutyl-2-((2S,6R)-2-(1-cyclopropyl-1H-pyrazol-4-yl)-6-methylmorpholino)-7-methylpyrido[2,3-d]pyrimidine-6-carbonitrile]
100 to 500 nM	Cc1noc(-c2cc3c(C4CCCCC4)nc(N4CCO[C@@H](c5cnn(C)c5)C4)nc3nc2C)n1 [Example 44, (2S)-4-[4-cyclohexyl-7-methyl-6-(3-methyl-1,2,4-oxadiazol-5-yl)-pyrido [2,3-d]-pyrimidin-2-yl]-2-(1-methyl-pyrazol-4-yl) morpholine]
100 to 500 nM	Cc1nc2nc(N3CCO[C@@H](c4cnn(C)c4)C3)nc(C3CCCCC3)c2cc1C#N [Example 45, 4-cyclohexyl-7-methyl-2-[(2S)-2-(1-methyl-pyrazol-4-yl)morpholin-4-yl]pyrido[2,3-d]pyrimidine-6-carbonitrile]
< 100 nM	Cc1cc([C@H]2CN(c3nc(C4CCCCC4)c4cc(C#N)c(C)nc4n3)CCO2)cnn1 [Example 46, 4-cyclohexyl-7-methyl-2-[2-(6-methyl-pyridazin-4-yl)morpholin-4-yl]-pyrido[2,3-d]pyrimidine-6-carbonitrile]
< 100 nM	Cc1cc2c(C3CCCC3)nc(N3C[C@@H](C)O[C@@H](c4cnn(C5CC5)c4)C3)nc2nc1C [Example 65, (2S,6R)-4-(4-cyclopentyl-6,7-dimethylpyrido[2,3-d]pyrimidin-2-yl)-2-(1-cyclopropylpyrazol-4-yl)-6-methylmorpholine]
< 100 nM	Cc1nc2nc(N3C[C@@H](C)O[C@@H](c4cnn(C(F)F)c4)C3)nc(C34CC(C(F)(F)F)(C3)C4)c2cc1C#N [Example 66, 2-[(2S,6R)-2-[1-(difluoromethyl)pyrazol-4-yl]-6-methyl-morpholin-4-yl]-7-methyl-4-[3-(trifluoromethyl)-1-bicyclo[1.1.1]pentanyl]pyrido[2,3-d]pyrimidine-6-carbonitrile]
100 to 500 nM	Cc1cc2c(-c3cccs3)nc(N3C[C@@H](C)O[C@@H](c4cnn(C5CC5)c4)C3)nc2nc1C [Example 69, (2S,6R)-2-(1-cyclopropyl-pyrazol-4-yl)-4-[6,7-dimethyl-4-(2-thienyl)pyrido-[2,3-d]pyrimidin-2-yl]-6-methyl-morpholine]
< 100 nM	Cc1nc2nc(N3C[C@@H](C)O[C@@H](c4cnn(CC(F)F)c4)C3)nc(C34CC(C(F)(F)F)(C3)C4)c2cc1C#N [Example 70, 2-((2S,6R)-2-(1-(2,2-difluoroethyl)-1H-pyrazol-4-yl)-6-methyl-morpholino)-7-methyl-4-(3-(trifluoromethyl)bicyclo[1.1.1]pentan-1-yl)pyrido[2,3-d]pyrimidine-6-carbonitrile]
< 100 nM	COCn1cc([C@H]2CN(c3nc(C45CC(C(F)(F)F)(C4)C5)c4cc(C#N)c(C)nc4n3)C[C@@H](C)O2)cn1 [Example 71]
< 100 nM	Cc1nc2nc(N3C[C@@H](C)O[C@@H](c4cnn(C5CC5)c4)C3)nc(C3CCCC3)c2cc1C#N [Example 72, 4-cyclopentyl-2-[(2S,6R)-2-(1-cyclopropyl-pyrazol-4-yl)-6-methyl-morpholin-4-yl]-7-methyl-pyrido[2,3-d]pyrimidine-6-carbonitrile]
< 100 nM	Cc1nc2nc(N3C[C@@H](C)O[C@@H](c4cnn(C5CC5)c4)C3)nc(C34CC(C(F)F)(C3)C4)c2cc1C#N [Example 73, 2-((2S,6R)-2-(1-cyclopropyl-1H-pyrazol-4-yl)-6-methylmorpholino)-4-(3-(difluoromethyl)bicyclo[1.1.1]pentan-1-yl)-7-methylpyrido[2,3-d]pyrimidine-6-carbonitrile]
< 100 nM	Cc1nc2nc(N3C[C@@H](C)O[C@@H](c4cnn(C5CC5)c4)C3)nc(C34CC(C(F)(F)F)(C3)C4)c2cc1C(F)(F)F [Example 74, (2S,6R)-2-(1-cyclopropyl-1H-pyrazol-4-yl)-6-methyl-4-(7-methyl-6-(trifluoromethyl)-4-(3-(trifluoromethyl)-bicyclo[1.1.1]pentan-1-yl)pyrido[2,3-d]pyrimidin-2-yl)morpholine]
< 100 nM	Cc1nc2nc(N3C[C@@H](C)O[C@@H](c4cnn(C5CC5)c4)C3)nc(C34CC(C(F)(F)F)(C3)C4)c2nc1C1COC1 [Example 84, (2S,6R)-2-(1-cyclopropyl-pyrazol-4-yl)-6-methyl-4-[7-methyl-6-(oxetan-3-yl)-4-[3-(trifluoromethyl)-1-bicyclo[1.1.1]pentanyl]-pteridin-2-yl]morpholine]
> 500 nM	Cc1nc2nc(N3C[C@@H](C)O[C@@H](c4cnn(C5CC5)c4)C3)nc(C34CC(C(F)(F)F)(C3)C4)c2nc1C1CN(C(=O)OC(C)(C)C)C1 [Example 86, tert-butyl 3-[2-[(2S,6R)-2-(1-cyclopropylpyrazol-4-yl)-6-methyl-morpholin-4-yl]-7-methyl-4-[3-(trifluoromethyl)-1-bicyclo[1.1.1]pentanyl]pteridin-6-yl]azetidine-1-carboxylate]
100 to 500 nM	Cc1nc2nc(N3C[C@@H](C)O[C@@H](c4cnn(C5CC5)c4)C3)nc(C34CC(C(F)(F)F)(C3)C4)c2nc1C1CN(C)C1 [Example 87, (2S,6R)-2-(1-cyclopropylpyrazol-4-yl)-6-methyl-4-[7-methyl-6-(1-methylazetidin-3-yl)-4-[3-(trifluoromethyl)-1-bicyclo[1.1.1]pentanyl]pteridin-2-yl]morpholine]
< 100 nM	Cc1nc2nc(N3C[C@@H](C)O[C@@H](c4cnn(C5CC5)c4)C3)nc(-c3ccc(C#N)cc3F)c2nc1C [Example 91, 4-[2-[(2S,6R)-2-(1-cyclopropylpyrazol-4-yl)-6-methyl-morpholin-4-yl]-6,7-dimethylpteridin-4-yl]-3-fluoro-benzonitrile]
< 100 nM	Cc1nc2nc(C3CCOC(c4ccn5nccc5c4)C3)nc(-c3ccc(F)cc3F)c2nc1C (stereo not drawn) [Example 93, 4-(2,4-difluorophenyl)-6,7-dimethyl-2-(2-pyrazolo[1,5-a]pyridin-5-yltetrahydropyran-4-yl)pteridine]
< 100 nM	Cc1nc2nc(C3CCOC(c4ccc5nccn5c4)C3)nc(-c3ccc(F)cc3F)c2nc1C (stereo not drawn) [Example 94, 4-(2,4-difluorophenyl)-2-(2-imidazo[1,2-a]pyridin-6-yltetrahydropyran-4-yl)-6,7-dimethyl-pteridine]
< 100 nM	Cc1nc2nc(C3CCOC(c4ccc5ncnn5c4)C3)nc(-c3ccc(F)cc3F)c2nc1C (stereo not drawn) [Example 95]
100 to 500 nM	Cc1nc2nc(N3C[C@@H](C)O[C@@H](c4cnn(C5CC5)c4)C3)nc(-c3ccncc3F)c2nc1C [Example 96, (2S,6R)-2-(1-cyclopropylpyrazol-4-yl)-4-[4-(3-fluoro-4-pyridyl)-6,7-dimethylpteridin-2-yl]-6-methyl-morpholine]
< 100 nM	Cc1nc2nc(C3CCOC(c4ccc5ncn(C)c5c4)C3)nc(-c3ccc(F)cc3F)c2nc1C (stereo not drawn) [Example 98, 4-(2,4-difluorophenyl)-6,7-dimethyl-2-[2-(3-methylbenzimidazol-5-yl)tetrahydropyran-4-yl]pteridine]
< 100 nM	Cc1nc2nc(C3CCOC(c4ccc5nnc(C)n5c4)C3)nc(-c3ccc(F)cc3F)c2nc1C (stereo not drawn) [Example 99, 4-(2,4-difluorophenyl)-6,7-dimethyl-2-[2-(3-methyl[1,2,4]-triazolo[4,3-a]pyridin-6-yl)tetrahydropyran-4-yl]pteridine]
< 100 nM	Cc1nc2nc(N3C[C@@H](C)O[C@@H](c4cnn(C5CC5)c4)C3)nc(C34CC(C3)C4)c2nc1C [Example 100, (2S,6R)-4-[4-(1-bicyclo[1.1.1]pentanyl)-6,7-dimethyl-pteridin-2-yl]-2-(1-cyclopropylpyrazol-4-yl)-6-methyl-morpholine]
